Assay results as given in PubChem BioAssay (NCI).
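48-hour exposure; five concentrations; linearly interpolated endpoints. At the TGI there is no net growth.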

Columns and labels:
Assay in all cases: growth of human tumour cells (NCI), 48 h
HCC-2998 colon = tested on: HCC-2998 colon
SK-OV-3 ovarian = tested on: SK-OV-3 ovarian
SNB-78 CNS = tested on: SNB-78 CNS
HT29 colon = tested on: HT29 colon
SW-620 colon = tested on: SW-620 colon
SK-MEL-28 melanoma = tested on: SK-MEL-28 melanoma
U251 CNS = tested on: U251 CNS
HOP-18 NSCLC = tested on: HOP-18 NSCLC
HCT-15 colon = tested on: HCT-15 colon
SK-MEL-5 melanoma = tested on: SK-MEL-5 melanoma
SF-295 CNS = tested on: SF-295 CNS
TK-10 renal = tested on: TK-10 renal
OVCAR-3 ovarian = tested on: OVCAR-3 ovarian
UACC-257 melanoma = tested on: UACC-257 melanoma
SK-MEL-2 melanoma = tested on: SK-MEL-2 melanoma
M19-MEL melanoma = tested on: M19-MEL melanoma
COLO 205 colon = tested on: COLO 205 colon
CCRF-CEM leukemia = tested on: CCRF-CEM leukemia
ACHN renal = tested on: ACHN renal
IGROV1 ovarian = tested on: IGROV1 ovarian
LXFL 529 NSCLC = tested on: LXFL 529 NSCLC
DLD-1 colon = tested on: DLD-1 colon
MALME-3M melanoma = tested on: MALME-3M melanoma
CAKI-1 renal = tested on: CAKI-1 renal
RPMI-8226 leukemia = tested on: RPMI-8226 leukemia
RXF 393 renal = tested on: RXF 393 renal
SNB-75 CNS = tested on: SNB-75 CNS
A498 renal = tested on: A498 renal
NCI-H522 lung = tested on: NCI-H522 lung
OVCAR-4 ovarian = tested on: OVCAR-4 ovarian
LOX IMVI melanoma = tested on: LOX IMVI melanoma
HOP-62 NSCLC = tested on: HOP-62 NSCLC
OVCAR-8 ovarian = tested on: OVCAR-8 ovarian
EKVX NSCLC = tested on: EKVX NSCLC
KM12 colon = tested on: KM12 colon
NCI-H460 lung = tested on: NCI-H460 lung
UO-31 renal = tested on: UO-31 renal
HL-60(TB) leukemia = tested on: HL-60(TB) leukemia
OVCAR-5 ovarian = tested on: OVCAR-5 ovarian
KM20L2 colon = tested on: KM20L2 colon
SNB-19 CNS = tested on: SNB-19 CNS
786-0 renal = tested on: 786-0 renal
UACC-62 melanoma = tested on: UACC-62 melanoma
DMS 114 small cell lung = tested on: DMS 114 small cell lung
NCI-H23 lung = tested on: NCI-H23 lung
MOLT-4 leukemia = tested on: MOLT-4 leukemia
K-562 leukemia = tested on: K-562 leukemia
NCI-H226 lung = tested on: NCI-H226 lung
A549 NSCLC = tested on: A549 NSCLC
HCT-116 colon = tested on: HCT-116 colon
SF-268 CNS = tested on: SF-268 CNS
M14 melanoma = tested on: M14 melanoma
SR leukemia = tested on: SR leukemia
SN12C renal = tested on: SN12C renal
DMS 273 small cell lung = tested on: DMS 273 small cell lung
SF-539 CNS = tested on: SF-539 CNS
HOP-92 NSCLC = tested on: HOP-92 NSCLC
RXF-631 renal = tested on: RXF-631 renal

CC(=O)c1cccc(C)c1C(=O)O
TGI (HCC-2998 colon): > 100 µM
TGI (SK-OV-3 ovarian): > 100 µM
TGI (SNB-78 CNS): > 100 µM
TGI (HT29 colon): > 100 µM
TGI (SW-620 colon): > 100 µM
TGI (SK-MEL-28 melanoma): > 100 µM
TGI (U251 CNS): > 100 µM
TGI (HOP-18 NSCLC): > 100 µM
TGI (HCT-15 colon): > 100 µM
TGI (SK-MEL-5 melanoma): > 100 µM
TGI (SF-295 CNS): > 100 µM
TGI (TK-10 renal): > 100 µM
TGI (OVCAR-3 ovarian): > 100 µM
TGI (UACC-257 melanoma): > 100 µM
TGI (SK-MEL-2 melanoma): > 100 µM
TGI (M19-MEL melanoma): > 100 µM
TGI (COLO 205 colon): > 100 µM
TGI (CCRF-CEM leukemia): > 100 µM
TGI (ACHN renal): > 100 µM
TGI (IGROV1 ovarian): > 100 µM
TGI (LXFL 529 NSCLC): > 100 µM
TGI (DLD-1 colon): > 100 µM
TGI (MALME-3M melanoma): > 100 µM
TGI (CAKI-1 renal): > 100 µM
TGI (RPMI-8226 leukemia): > 100 µM
TGI (RXF 393 renal): > 100 µM
TGI (SNB-75 CNS): > 100 µM
TGI (A498 renal): > 100 µM
TGI (NCI-H522 lung): > 100 µM
TGI (OVCAR-4 ovarian): > 100 µM
TGI (LOX IMVI melanoma): > 100 µM
TGI (HOP-62 NSCLC): > 100 µM
TGI (OVCAR-8 ovarian): > 100 µM
TGI (EKVX NSCLC): > 100 µM
TGI (KM12 colon): > 100 µM
TGI (NCI-H460 lung): > 100 µM
TGI (UO-31 renal): > 100 µM
TGI (HL-60(TB) leukemia): > 100 µM
TGI (OVCAR-5 ovarian): > 100 µM
TGI (KM20L2 colon): > 100 µM
TGI (SNB-19 CNS): > 100 µM
TGI (786-0 renal): > 100 µM
TGI (UACC-62 melanoma): > 100 µM
TGI (DMS 114 small cell lung): > 100 µM
TGI (NCI-H23 lung): > 100 µM
TGI (MOLT-4 leukemia): > 100 µM
TGI (K-562 leukemia): > 100 µM
TGI (NCI-H226 lung): > 100 µM
TGI (A549 NSCLC): > 100 µM
TGI (HCT-116 colon): > 100 µM
TGI (SF-268 CNS): > 100 µM
TGI (M14 melanoma): > 100 µM
TGI (SR leukemia): > 100 µM
TGI (SN12C renal): > 100 µM
TGI (DMS 273 small cell lung): > 100 µM

NC(=O)CCC(Nc1c2ccccc2nc2ccccc12)C(=O)O (configuration not stated)
TGI (HCC-2998 colon): > 100 µM
TGI (SF-539 CNS): > 100 µM
TGI (HT29 colon): > 100 µM
TGI (SW-620 colon): > 100 µM
TGI (SK-MEL-28 melanoma): > 100 µM
TGI (U251 CNS): > 100 µM
TGI (HCT-15 colon): > 100 µM
TGI (SF-295 CNS): > 100 µM
TGI (TK-10 renal): > 100 µM
TGI (HOP-92 NSCLC): > 100 µM
TGI (OVCAR-3 ovarian): > 100 µM
TGI (RXF-631 renal): > 100 µM
TGI (UACC-257 melanoma): > 100 µM
TGI (SK-MEL-2 melanoma): > 100 µM
TGI (M19-MEL melanoma): > 100 µM
TGI (COLO 205 colon): > 100 µM
TGI (CCRF-CEM leukemia): > 100 µM
TGI (ACHN renal): > 100 µM
TGI (LXFL 529 NSCLC): > 100 µM
TGI (DLD-1 colon): > 100 µM
TGI (MALME-3M melanoma): > 100 µM
TGI (CAKI-1 renal): > 100 µM
TGI (RPMI-8226 leukemia): > 100 µM
TGI (RXF 393 renal): > 100 µM
TGI (SNB-75 CNS): > 100 µM
TGI (NCI-H522 lung): > 100 µM
TGI (OVCAR-4 ovarian): 80.8 µM
TGI (LOX IMVI melanoma): > 100 µM
TGI (OVCAR-8 ovarian): > 100 µM
TGI (EKVX NSCLC): > 100 µM
TGI (KM12 colon): > 100 µM
TGI (NCI-H460 lung): > 100 µM
TGI (HL-60(TB) leukemia): > 100 µM
TGI (OVCAR-5 ovarian): > 100 µM
TGI (KM20L2 colon): > 100 µM
TGI (786-0 renal): > 100 µM
TGI (NCI-H23 lung): > 100 µM
TGI (MOLT-4 leukemia): > 100 µM
TGI (K-562 leukemia): > 100 µM
TGI (NCI-H226 lung): > 100 µM
TGI (A549 NSCLC): > 100 µM
TGI (HCT-116 colon): > 100 µM
TGI (SF-268 CNS): > 100 µM
TGI (M14 melanoma): > 100 µM
TGI (SR leukemia): > 100 µM
TGI (SN12C renal): > 100 µM
TGI (DMS 273 small cell lung): > 100 µM
